Drawing on BindingDB's records for doi:10.1021/jm00045a017 (National Taiwan University, 1994), this text covers Ki for 8 compounds.

The nature of this assay: binding affinity against sigma Opioid receptor was measured by using labeled ligand [3H]-SKF- 10,047 (1 nM).
With `Oc1cccc2c1O[C@H]1[C@@H](O)CC[C@H]3CN(CC4CC4)CC[C@@]231` [(4aR,7S,7aR,12bS)-3-Cyclopropylmethyl-2,3,4,4a,5,6,7,7a-octahydro-1H-8-oxa-3-aza-benzo[d]fluorene-7,9-diol], the inhibitory constant (Ki) (usually a measure of affinity in units of concentration, obtained from inhibition or displacement) was determined as 580 nM. On to `COc1cccc2c1O[C@H]1[C@@H](O)CC[C@H]3CN(CC4CC4)CC[C@@]231` [(4aR,7S,7aR,12bS)-3-Cyclopropylmethyl-9-methoxy-2,3,4,4a,5,6,7,7a-octahydro-1H-8-oxa-3-aza-benzo[d]fluoren-7-ol], for which the inhibition constant Ki is 410 nM. For `O=C1CC[C@H]2CN(CC3CC3)CC[C@@]23c2cccc(O)c2O[C@@H]13` [(4aR,7aR,12bS)-3-Cyclopropylmethyl-9-hydroxy-2,3,4,4a,5,6-hexahydro-1H-8-oxa-3-aza-benzo[d]fluoren-7-one] the value was 710 nM.

In the case of `COc1cccc2c1O[C@H]1C(=O)CC[C@H]3CN(CC4CC4)CC[C@@]231` [(4aR,7aR,12bS)-3-Cyclopropylmethyl-9-methoxy-2,3,4,4a,5,6-hexahydro-1H-8-oxa-3-aza-benzo[d]fluoren-7-one], the Ki stood at 440 nM.

Compound `CN1CC[C@]23c4cccc(O)c4O[C@H]2C(=O)CC[C@H]3C1` [(4aR,7aR,12bS)-9-Hydroxy-3-methyl-2,3,4,4a,5,6-hexahydro-1H-8-oxa-3-aza-benzo[d]fluoren-7-one] showed a Ki of 2090 nM. For `Oc1cccc2c1O[C@H]1[C@H](O)CC[C@@H]3CN(CC4CC4)CC[C@@]231` [(4aS,7R,7aR,12bS)-3-Cyclopropylmethyl-2,3,4,4a,5,6,7,7a-octahydro-1H-8-oxa-3-aza-benzo[d]fluorene-7,9-diol] the value was 300 nM; for `O=C1CC[C@@H]2CN(CC3CC3)CC[C@@]23c2cccc(O)c2O[C@@H]13` [(4aS,7aR,12bS)-3-Cyclopropylmethyl-9-hydroxy-2,3,4,4a,5,6-hexahydro-1H-8-oxa-3-aza-benzo[d]fluoren-7-one], 310 nM; for `Oc1cccc2c1O[C@H]1CCC[C@H]3CN(CC4CC4)CC[C@@]231` [(-)-trans-3-Cyclopropylmethyl-2,3,4,4aalpha,5,6,7,7aalpha-octahydro-1H-benzo[4,5]furo[3,2-e]isoquinolin-9-ol], 21 nM.
